In article PMC5053573, “Structure-Based Design of Tetrahydroisoquinoline-7-carboxamides as Selective Discoidin Domain Receptor 1 (DDR1) Inhibitors” (Journal of Medicinal Chemistry, 2016):

Assays:
Assay in all cases: biochemical
Details in all cases: read-out: %Ctrl @ 1000nM
[1] = target: ABL1(E255K)-phosphorylated (Homo sapiens, UniProt P00519, E255K)
ALK(L1196M) = ALK(L1196M) (Homo sapiens, UniProt Q9UM73, L1196M)
ANKK1 = ANKK1 (Homo sapiens, UniProt Q8NFD2)
AURKC = AURKC (Homo sapiens, UniProt Q9UQB9)
CAMK2B = CAMK2B (Homo sapiens, UniProt Q13554)
CDK4-cyclinD3 = CDK4-cyclinD3 (Homo sapiens, UniProt P11802)
CDK9 = CDK9 (Homo sapiens, UniProt P50750)
CTK = target: T1, CTK (Homo sapiens, UniProt P42679)
T1 construct: gene MATK

EPHB1 = EPHB1 (Homo sapiens, UniProt P54762)
EPHB2 = EPHB2 (Homo sapiens, UniProt P29323)
ERBB4 = ERBB4 (Homo sapiens, UniProt Q15303)
FER = FER (Homo sapiens, UniProt P16591)
GRK2 = GRK2 (Homo sapiens, UniProt P25098)
HPK1 = target: T2, HPK1 (Homo sapiens, UniProt Q92918)
T2 construct: gene MAP4K1

KIT(V559D,V654A) = KIT(V559D,V654A) (Homo sapiens, UniProt P10721, V559D/V654A)
LYN = LYN (Homo sapiens, UniProt P07948)
MAST1 = MAST1 (Homo sapiens, UniProt Q9Y2H9)
MEK6 = target: T3, MEK6 (Homo sapiens, UniProt P52564)
T3 construct: gene MAP2K6

MRCKB = target: T4, MRCKB (Homo sapiens, UniProt Q9Y5S2)
T4 construct: gene CDC42BPB

MUSK = MUSK (Homo sapiens, UniProt O15146)
MYO3B = MYO3B (Homo sapiens, UniProt Q8WXR4)
NIK = target: T5, NIK (Homo sapiens, UniProt Q99558)
T5 construct: gene MAP3K14

PAK3 = PAK3 (Homo sapiens, UniProt O75914)
PHKG1 = PHKG1 (Homo sapiens, UniProt Q16816)
PIK3CA(E545A) = PIK3CA(E545A) (Homo sapiens, UniProt P42336, E545A)
PIK3CA(Q546K) = PIK3CA(Q546K) (Homo sapiens, UniProt P42336, Q546K)
PIP5K1A = PIP5K1A (Homo sapiens, UniProt Q99755)
PRKD2 = PRKD2 (Homo sapiens, UniProt Q9BZL6)
PYK2 = target: T6, PYK2 (Homo sapiens, UniProt Q14289)
T6 construct: gene PTK2B

RIPK4 = RIPK4 (Homo sapiens, UniProt P57078)
ROCK1 = ROCK1 (Homo sapiens, UniProt Q13464)
SRMS = SRMS (Homo sapiens, UniProt Q9H3Y6)
TGFBR1 = TGFBR1 (Homo sapiens, UniProt P36897)
TLK2 = TLK2 (Homo sapiens, UniProt Q86UE8)
TNNI3K = TNNI3K (Homo sapiens, UniProt Q59H18)

Sequence of ANKK1 (Q8NFD2 whole entry): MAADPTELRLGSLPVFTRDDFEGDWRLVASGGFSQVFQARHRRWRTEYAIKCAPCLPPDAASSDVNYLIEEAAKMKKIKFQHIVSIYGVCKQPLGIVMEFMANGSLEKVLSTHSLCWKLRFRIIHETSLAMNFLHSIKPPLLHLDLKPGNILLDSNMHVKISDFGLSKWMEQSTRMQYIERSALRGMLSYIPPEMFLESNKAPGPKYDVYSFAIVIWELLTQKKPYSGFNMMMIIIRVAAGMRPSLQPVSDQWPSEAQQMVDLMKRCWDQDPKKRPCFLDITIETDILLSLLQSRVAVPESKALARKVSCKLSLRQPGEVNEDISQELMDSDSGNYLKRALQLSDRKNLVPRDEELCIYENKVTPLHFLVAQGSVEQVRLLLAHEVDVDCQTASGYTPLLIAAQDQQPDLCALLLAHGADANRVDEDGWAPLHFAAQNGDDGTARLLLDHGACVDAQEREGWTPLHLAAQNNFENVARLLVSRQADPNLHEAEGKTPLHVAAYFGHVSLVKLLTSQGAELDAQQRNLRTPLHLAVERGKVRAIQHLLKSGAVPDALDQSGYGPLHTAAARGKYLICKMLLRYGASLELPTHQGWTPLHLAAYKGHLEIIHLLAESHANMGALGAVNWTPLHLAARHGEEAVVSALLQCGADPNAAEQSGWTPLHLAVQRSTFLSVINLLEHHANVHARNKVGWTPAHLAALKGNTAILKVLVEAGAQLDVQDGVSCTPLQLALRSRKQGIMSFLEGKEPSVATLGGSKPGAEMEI
Sequence of PIK3CA(E545A) (P42336 whole entry E545A): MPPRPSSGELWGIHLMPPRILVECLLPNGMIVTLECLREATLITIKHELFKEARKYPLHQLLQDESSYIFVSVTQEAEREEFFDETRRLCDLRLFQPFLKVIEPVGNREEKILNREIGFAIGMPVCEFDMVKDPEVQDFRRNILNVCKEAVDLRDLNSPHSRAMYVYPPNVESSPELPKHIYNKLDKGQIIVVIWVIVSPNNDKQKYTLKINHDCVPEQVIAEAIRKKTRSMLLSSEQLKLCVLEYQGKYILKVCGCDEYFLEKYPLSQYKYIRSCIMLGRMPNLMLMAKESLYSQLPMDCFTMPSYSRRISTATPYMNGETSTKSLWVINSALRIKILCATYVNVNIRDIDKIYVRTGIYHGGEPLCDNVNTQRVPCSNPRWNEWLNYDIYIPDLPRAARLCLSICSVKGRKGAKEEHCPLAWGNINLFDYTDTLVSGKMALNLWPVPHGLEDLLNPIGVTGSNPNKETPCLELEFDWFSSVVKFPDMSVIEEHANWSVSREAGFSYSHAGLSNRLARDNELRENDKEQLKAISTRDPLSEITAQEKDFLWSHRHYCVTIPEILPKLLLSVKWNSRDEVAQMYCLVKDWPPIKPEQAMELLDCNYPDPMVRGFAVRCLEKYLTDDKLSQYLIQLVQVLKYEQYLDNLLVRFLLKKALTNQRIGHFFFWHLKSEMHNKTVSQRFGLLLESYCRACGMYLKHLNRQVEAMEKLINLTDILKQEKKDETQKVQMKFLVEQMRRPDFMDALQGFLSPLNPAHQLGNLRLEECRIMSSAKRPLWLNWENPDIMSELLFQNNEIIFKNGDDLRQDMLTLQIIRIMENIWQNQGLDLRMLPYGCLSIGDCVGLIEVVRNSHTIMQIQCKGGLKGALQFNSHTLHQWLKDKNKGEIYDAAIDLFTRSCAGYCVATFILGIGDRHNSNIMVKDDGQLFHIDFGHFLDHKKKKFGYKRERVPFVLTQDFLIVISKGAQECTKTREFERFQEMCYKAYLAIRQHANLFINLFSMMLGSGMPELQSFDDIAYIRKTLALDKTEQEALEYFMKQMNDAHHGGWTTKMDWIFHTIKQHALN
Sequence of FER (P16591 whole entry): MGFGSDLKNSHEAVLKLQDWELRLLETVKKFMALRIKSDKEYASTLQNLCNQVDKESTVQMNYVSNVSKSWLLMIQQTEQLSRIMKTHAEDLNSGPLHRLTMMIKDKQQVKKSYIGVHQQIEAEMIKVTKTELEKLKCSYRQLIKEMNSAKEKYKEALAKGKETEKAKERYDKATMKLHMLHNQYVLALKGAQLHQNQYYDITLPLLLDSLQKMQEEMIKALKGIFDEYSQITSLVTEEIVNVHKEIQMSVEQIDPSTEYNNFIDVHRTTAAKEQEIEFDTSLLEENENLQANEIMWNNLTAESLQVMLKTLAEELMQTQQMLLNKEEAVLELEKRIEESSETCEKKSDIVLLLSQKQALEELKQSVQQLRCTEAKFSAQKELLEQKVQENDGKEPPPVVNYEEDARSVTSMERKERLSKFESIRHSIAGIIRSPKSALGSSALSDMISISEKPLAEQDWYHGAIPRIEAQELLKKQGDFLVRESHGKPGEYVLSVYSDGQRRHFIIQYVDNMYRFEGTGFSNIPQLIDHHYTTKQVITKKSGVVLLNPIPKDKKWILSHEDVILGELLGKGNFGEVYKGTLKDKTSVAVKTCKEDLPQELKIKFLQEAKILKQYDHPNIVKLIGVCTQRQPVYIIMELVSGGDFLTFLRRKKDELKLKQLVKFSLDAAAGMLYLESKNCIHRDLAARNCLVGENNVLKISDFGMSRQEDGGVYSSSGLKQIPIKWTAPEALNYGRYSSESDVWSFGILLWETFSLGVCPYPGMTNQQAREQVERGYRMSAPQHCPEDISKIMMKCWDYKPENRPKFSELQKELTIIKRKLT
Sequence of EPHB1 (P54762 whole entry): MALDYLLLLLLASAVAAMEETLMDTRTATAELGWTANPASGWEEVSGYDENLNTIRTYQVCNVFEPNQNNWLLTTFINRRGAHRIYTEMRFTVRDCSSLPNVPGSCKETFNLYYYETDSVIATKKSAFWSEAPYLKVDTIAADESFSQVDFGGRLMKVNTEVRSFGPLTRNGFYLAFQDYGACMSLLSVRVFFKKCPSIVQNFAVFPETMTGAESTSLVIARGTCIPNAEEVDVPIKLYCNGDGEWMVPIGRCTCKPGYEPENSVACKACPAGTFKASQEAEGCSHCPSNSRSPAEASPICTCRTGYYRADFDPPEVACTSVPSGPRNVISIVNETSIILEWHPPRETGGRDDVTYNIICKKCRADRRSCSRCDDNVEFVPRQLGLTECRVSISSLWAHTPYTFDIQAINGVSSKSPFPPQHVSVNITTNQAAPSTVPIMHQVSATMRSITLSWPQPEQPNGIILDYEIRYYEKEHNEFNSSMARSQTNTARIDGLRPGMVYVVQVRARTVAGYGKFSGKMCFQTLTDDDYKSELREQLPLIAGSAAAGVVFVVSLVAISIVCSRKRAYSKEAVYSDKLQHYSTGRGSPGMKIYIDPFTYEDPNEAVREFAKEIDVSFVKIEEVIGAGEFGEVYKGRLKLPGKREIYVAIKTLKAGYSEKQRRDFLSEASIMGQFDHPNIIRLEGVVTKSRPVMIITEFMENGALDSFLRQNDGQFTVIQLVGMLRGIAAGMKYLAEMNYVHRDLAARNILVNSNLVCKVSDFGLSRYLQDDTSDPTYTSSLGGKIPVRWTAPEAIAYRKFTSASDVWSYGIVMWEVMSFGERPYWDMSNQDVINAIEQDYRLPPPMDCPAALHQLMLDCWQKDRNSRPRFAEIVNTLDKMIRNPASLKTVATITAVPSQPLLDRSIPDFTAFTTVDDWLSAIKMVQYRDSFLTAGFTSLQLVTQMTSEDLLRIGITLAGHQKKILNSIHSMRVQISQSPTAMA
Sequence of SRMS (Q9H3Y6 whole entry): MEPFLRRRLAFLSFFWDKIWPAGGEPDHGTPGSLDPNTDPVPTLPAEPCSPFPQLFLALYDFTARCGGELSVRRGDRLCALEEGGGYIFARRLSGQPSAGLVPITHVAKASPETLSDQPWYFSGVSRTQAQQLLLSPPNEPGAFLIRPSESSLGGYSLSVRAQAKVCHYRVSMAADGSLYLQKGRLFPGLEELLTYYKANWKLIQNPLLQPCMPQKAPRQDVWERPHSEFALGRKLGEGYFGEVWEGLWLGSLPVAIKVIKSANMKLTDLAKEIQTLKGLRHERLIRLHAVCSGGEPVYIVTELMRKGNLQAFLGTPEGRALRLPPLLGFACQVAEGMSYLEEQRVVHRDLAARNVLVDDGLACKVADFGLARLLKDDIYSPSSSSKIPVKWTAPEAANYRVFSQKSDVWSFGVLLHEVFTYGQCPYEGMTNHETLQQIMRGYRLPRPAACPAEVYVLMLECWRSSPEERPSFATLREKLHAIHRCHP
T2 sequence (Q92918 whole entry): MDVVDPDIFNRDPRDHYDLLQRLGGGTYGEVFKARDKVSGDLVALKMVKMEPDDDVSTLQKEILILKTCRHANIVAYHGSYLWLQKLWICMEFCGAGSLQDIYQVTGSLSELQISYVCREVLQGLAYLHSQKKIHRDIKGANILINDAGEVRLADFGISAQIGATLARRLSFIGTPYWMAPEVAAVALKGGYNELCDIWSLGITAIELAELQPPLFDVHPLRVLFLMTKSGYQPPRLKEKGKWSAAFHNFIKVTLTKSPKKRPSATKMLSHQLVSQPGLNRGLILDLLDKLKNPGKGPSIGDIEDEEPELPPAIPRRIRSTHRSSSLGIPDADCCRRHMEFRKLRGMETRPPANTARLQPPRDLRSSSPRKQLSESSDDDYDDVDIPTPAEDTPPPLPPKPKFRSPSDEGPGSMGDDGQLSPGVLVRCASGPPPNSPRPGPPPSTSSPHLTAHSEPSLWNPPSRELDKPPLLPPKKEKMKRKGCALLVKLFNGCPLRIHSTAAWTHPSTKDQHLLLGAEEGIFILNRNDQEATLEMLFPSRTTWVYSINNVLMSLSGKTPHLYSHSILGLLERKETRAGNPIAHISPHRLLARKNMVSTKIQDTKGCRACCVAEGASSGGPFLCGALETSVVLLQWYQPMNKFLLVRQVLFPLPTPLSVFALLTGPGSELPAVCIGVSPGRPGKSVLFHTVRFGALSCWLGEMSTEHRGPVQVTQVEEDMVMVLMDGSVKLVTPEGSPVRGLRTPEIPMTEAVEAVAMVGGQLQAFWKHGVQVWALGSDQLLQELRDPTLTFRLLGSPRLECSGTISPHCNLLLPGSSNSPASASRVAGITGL
Sequence of PIK3CA(Q546K) (P42336 whole entry Q546K): as the sequence (P42336 whole entry E545A) above, with A545E, Q546K counted along it

## Cc1cn(-c2cc(NC(=O)c3ccc4c(c3)CN(c3cncnc3)C[C@@H]4C)cc(C(F)(F)F)c2)cn1 [Compound 6j]
[1]
  remaining activity at 1 µM: 56%
ALK(L1196M)
  remaining activity at 1 µM: 100%
ANKK1
  remaining activity at 1 µM: 63%
AURKC
  remaining activity at 1 µM: 100%
CAMK2B
  remaining activity at 1 µM: 95%
CDK4-cyclinD3
  remaining activity at 1 µM: 100%
CDK9
  remaining activity at 1 µM: 92%
CTK
  remaining activity at 1 µM: 100%
EPHB1
  remaining activity at 1 µM: 72%
EPHB2
  remaining activity at 1 µM: 85%
ERBB4
  remaining activity at 1 µM: 100%
FER
  remaining activity at 1 µM: 92%
GRK2
  remaining activity at 1 µM: 96%
HPK1
  remaining activity at 1 µM: 100%
KIT(V559D,V654A)
  remaining activity at 1 µM: 86%
LYN
  remaining activity at 1 µM: 100%
MAST1
  remaining activity at 1 µM: 100%
MEK6
  remaining activity at 1 µM: 98%
MRCKB
  remaining activity at 1 µM: 94%
MUSK
  remaining activity at 1 µM: 31%
MYO3B
  remaining activity at 1 µM: 85%
NIK
  remaining activity at 1 µM: 100%
PAK3
  remaining activity at 1 µM: 79%
PHKG1
  remaining activity at 1 µM: 95%
PIK3CA(E545A)
  remaining activity at 1 µM: 86%
PIK3CA(Q546K)
  remaining activity at 1 µM: 100%
PIP5K1A
  remaining activity at 1 µM: 100%
PRKD2
  remaining activity at 1 µM: 92%
PYK2
  remaining activity at 1 µM: 93%
RIPK4
  remaining activity at 1 µM: 100%
ROCK1
  remaining activity at 1 µM: 100%
SRMS
  remaining activity at 1 µM: 100%
TGFBR1
  remaining activity at 1 µM: 96%
TLK2
  remaining activity at 1 µM: 98%
TNNI3K
  remaining activity at 1 µM: 65%
